Values joined by “and” are separate entries in the source; they are usually repeats but may differ in a detail not shown here. Equal entries are not always repeated.
Columns and labels:
Type in all cases: biochemical
[1] = Specificity on chromogenic substrates; settings: 400 μM substrate, 1 μg protease, 100 mM HEPES pH 7.75; normalized to Ac-IEPD-pNA = 100%
Protocol: The activity assay was carried out in 500 μl 100 mM HEPES pH 7.75 with a substrate concentration of 400 μM and 1 μg protease added for each measurement. All measurements were done at 23° C. and in triplicate, and the activities obtained were normalized by setting the activity measured on Ac-IEPD-pNA to 100%.
The specificity of both the GrB-H6 and the GrB-H6 C228F protease was examined using the chromogenic substrates Ac-LEED-pNA, Ac-VEID-pNA, Ac-YVAD-pNA, and Ac-DEVD-pNA, in addition to the Ac-IEPD-pNA substrate applied in Example 4. The activity assay was again carried out in 500 μl 100 mM HEPES pH 7.75 with a substrate concentration of 400 μM. For each measurement 1 μg of protease was added to the assay cuvette. All measurements were done in triplicate, and the activities obtained were normalized by setting the activity measured on Ac-IEPD-pNA to 100%.

[2] = Colorimetric Granzyme B activity assay with Ac-IEPD-pNA (absorbance at 405 nm)
Protocol: GrB-H6 activity was measured using the following mix: 500 μl buffer, 2 μl 100 mM Ac-IEPD-pNA, and 5 μl GrB-H6.
Recombinant self-activating human Granzyme B derivatives IEPD-GrB-H6 and IEAD-GrB-H6 were produced as described in Example 2 by using the expression vectors pT7-IEPD-GrB-H6 and pT7-IEAD-GrB-H6 described in Example 1. The IEAD-GrB-H6 and IEPD-GrB-H6 proteins were eluted from the SP Sepharose columns and stored at 4° C. for 2 days before the activity of the respective top fractions were determined by using a colorimetric assay. For this purpose the following was mixed: 500 μl buffer (100 mM HEPES pH 7.5), 2 μl 100 mM Ac-IEPD-pNA, and 5 μl protein solution. The change in absorption was then determined at 405 nm during 3 min. The activity was further determined after additional incubation for 1 and 2 days at 4° C.
The activity of the activated and purified GrB-H6 was measured in different buffers using the Ac-IEPD-pNA substrate: 500 μl buffer, 2 μl 100 mM Ac-IEPD-pNA, and 5 μl GrB-H6. The ΔOD405/min was calculated from the first 0.75 min unless otherwise noted.

[3] = Steady state kinetic parameters KM and kcat, Lineweaver-Burk plot; settings: 100 mM HEPES pH 7.75; 20 nM protease
Protocol: To estimate the steady state kinetic parameters KM and kcat, the same colorimetric assay as described above was used with a total volume of 500 μl in the assay cuvette. The assay buffer was 100 mM HEPES pH 7.75, and both GrB-H6 and GrB-H6 C228F were used in a concentration of 20 nM in each measurement. To construct a Lineweaver-Burk plot the following substrate concentrations were used: 5, 40, 150, 300, and 600 μM.

## GrB-H6: activated human Granzyme B with C-terminal hexa-His tag, from cleavage/activation of pro-IEGR-GrB-H6 by FXa
[1]
  specificity on chromogenic substrates: at least as specific as the GrB-H6 C228F protease
[2]; 50 mM NaCl, 25 mM Tris-HCl pH 7.4, 0.5 μg GrB-H6
  Activity (ΔOD405/min): 0.1948 ΔOD405/min
[2]; 100 mM HEPES pH 7.2, 0.5 μg GrB-H6
  Activity (ΔOD405/min): 0.1970 ΔOD405/min
[2]; 100 mM HEPES pH 7.4 + 50 mM KCl, 0.5 μg GrB-H6
  Activity (ΔOD405/min): 0.2167 ΔOD405/min
[2]; 100 mM HEPES pH 7.4 + 50 mM NaCl, 0.5 μg GrB-H6
  Activity (ΔOD405/min): 0.1993 ΔOD405/min and 0.1938 ΔOD405/min
[2]; 100 mM HEPES pH 7.4, 0.5 μg GrB-H6
  Activity (ΔOD405/min): 0.2273 ΔOD405/min and 0.2328 ΔOD405/min
[2]; 100 mM HEPES pH 7.5 + 5 mM Ca^2+, 0.5 μg GrB-H6
  Activity (ΔOD405/min): 0.2425 ΔOD405/min
[2]; 100 mM HEPES pH 7.5, 0.5 μg GrB-H6
  Activity (ΔOD405/min): 0.2350 ΔOD405/min
[2]; 100 mM KCl, 50 mM Tris-HCl pH 7.4, 0.5 μg GrB-H6
  Activity (ΔOD405/min): 0.1662 ΔOD405/min
[2]; 100 mM NaCl, 50 mM Tris-HCl pH 7.4, 0.5 μg GrB-H6
  Activity (ΔOD405/min): 0.1682 ΔOD405/min
[2]; 100 mM NaCl, 50 mM Tris-HCl pH 8.0
  GrB activity, before FXa removal: 0.1401 ΔOD405/min
[2]; 100 mM NaCl, 50 mM Tris-HCl pH 8.0, top fraction of SP Sepharose eluate
  GrB activity, after FXa removal: 0.2213 ΔOD405/min
[2]; TN pH 7.0, 1 μg GrB-H6
  Activity (ΔOD405/min): 0.2794 ΔOD405/min
[2]; TN pH 7.4 + 5 mM Ca^2+, 0.5 μg GrB-H6
  Activity (ΔOD405/min): 0.1401 ΔOD405/min
[2]; TN pH 7.4 + 5 mM Mg^2+, 0.5 μg GrB-H6
  Activity (ΔOD405/min): 0.1491 ΔOD405/min
[2]; TN pH 7.4 + 0.1% TWEEN20, 0.2 μg GrB-H6, (3 min)
  Activity (ΔOD405/min): 0.0303 (3 min) ΔOD405/min
[2]; TN pH 7.4 + 0.1% TWEEN20, 0.5 μg GrB-H6
  Activity (ΔOD405/min): 0.0887 ΔOD405/min
[2]; TN pH 7.4, 0.2 μg GrB-H6, (3 min)
  Activity (ΔOD405/min): 0.0245 (3 min) ΔOD405/min
[2]; TN pH 7.4, 0.5 μg GrB-H6
  Activity (ΔOD405/min): 0.0835 ΔOD405/min and 0.1082 ΔOD405/min
[2]; TN pH 7.4, 1 μg GrB-H6
  Activity (ΔOD405/min): 0.2624 ΔOD405/min and 0.2930 ΔOD405/min
[2]; TN pH 8.1, 1 μg GrB-H6, (1 min)
  Activity (ΔOD405/min): 0.2213 (1 min) ΔOD405/min
[2]; buffers of Table 6
  best buffer for activity of the buffers evaluated: 100 mM HEPES pH 7.4-7.5
[3]
  Km: 66.9 µM
  kcat: 5.03 s⁻¹

Source: patent publication US8541200B2, “Cleavage of fusion proteins using Granzyme B protease” (Hoffmann-La Roche Inc., priority 2003, dated 2013)
